This note sets out measurements from PubChem BioAssay (NCI).

Values joined by “and” are separate entries in the source; they are usually repeats but may differ in a detail not shown here. Equal entries are not always repeated.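 In this assay, cells in 96-well plates receive the compound at five concentrations for 48 hours. Endpoints are linearly interpolated between the surrounding concentrations. GI50: concentration for 50% inhibition of growth. TGI marks complete inhibition of growth.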

Among the test systems are OVCAR-8 ovarian; SF-539 CNS; NCI-H460 lung; K-562 leukemia; NCI/ADR-RES ovarian; U251 CNS; OVCAR-4 ovarian; 786-0 renal; TK-10 renal; UACC-257 melanoma.
Common to all, as to experiment: NCI-60 cell line screen, 48 h

As for `O=[N+]([O-])c1ccc(C2CC(c3ccccc3)=Nc3ccccc3S2)cc1` (stereo not drawn), the GI50 in the experiment with OVCAR-8 ovarian is 52.4 µM; with SF-539 CNS, > 100 µM; in the experiment with NCI-H460 lung, > 100 µM; in the experiment with K-562 leukemia it was 3.87 µM; with NCI/ADR-RES ovarian, > 100 µM; in the experiment with U251 CNS it was 4.7 µM. Besides, the GI50 is 21.4 µM in the experiment with OVCAR-4 ovarian, > 100 µM in the experiment on 786-0 renal, > 100 µM in the experiment on TK-10 renal and > 100 µM with UACC-257 melanoma. Besides, the TGI with OVCAR-8 ovarian, with SF-539 CNS, with NCI-H460 lung, with K-562 leukemia, in the experiment on NCI/ADR-RES ovarian and in the experiment on U251 CNS was > 100 µM each time. Besides, the TGI with OVCAR-4 ovarian, with 786-0 renal, in the experiment with TK-10 renal and with UACC-257 melanoma was > 100 µM each time.

Regarding `CCN1C(=O)N(CC)C2C1NN=c1s/c(=C\c3ccco3)c(=O)n12` (stereo not drawn), the GI50 in the experiment with OVCAR-8 ovarian is 1.43 µM; with SF-539 CNS it was 0.402 µM; with NCI-H460 lung, 0.403 µM; in the experiment with K-562 leukemia, 0.311 µM; in the experiment on NCI/ADR-RES ovarian, 0.417 µM; with U251 CNS, 0.576 µM. Also, the GI50 with OVCAR-4 ovarian is 4.24 µM; in the experiment with 786-0 renal it was 0.571 µM; in the experiment on TK-10 renal, 19.7 µM; in the experiment with UACC-257 melanoma, > 100 µM. Further, the TGI with OVCAR-8 ovarian is > 100 µM; in the experiment with SF-539 CNS, 6.48 µM; with NCI-H460 lung, > 100 µM; with K-562 leukemia it was > 100 µM; in the experiment on NCI/ADR-RES ovarian, > 100 µM; in the experiment on U251 CNS, > 100 µM. Besides, the TGI in the experiment on OVCAR-4 ovarian, with 786-0 renal, in the experiment on TK-10 renal and in the experiment on UACC-257 melanoma was > 100 µM throughout.

Regarding `CC/C(=C(/c1ccc(O)cc1)c1ccc(OCCN)cc1)c1ccccc1`, the GI50 with OVCAR-8 ovarian is 3.12 µM; in the experiment on SF-539 CNS it was 3.73 µM; with NCI-H460 lung, 1.96 µM; with K-562 leukemia it was 2.03 µM; in the experiment on NCI/ADR-RES ovarian it was 3.31 µM; with U251 CNS it was 1.82 µM. The GI50 in the experiment on OVCAR-4 ovarian was 2.88 µM; in the experiment with 786-0 renal, 2.69 µM; in the experiment on TK-10 renal it was 4.91 µM; in the experiment with UACC-257 melanoma it was 10.5 µM. The TGI in the experiment with OVCAR-8 ovarian was 9.94 µM; in the experiment with SF-539 CNS, 8.01 µM; in the experiment with NCI-H460 lung, 3.95 µM; in the experiment with K-562 leukemia, 4.72 µM; in the experiment on NCI/ADR-RES ovarian it was 10.6 µM; in the experiment with U251 CNS it was 3.86 µM. Also, the TGI in the experiment with OVCAR-4 ovarian amounted to 16 µM; with 786-0 renal, 7.28 µM; with TK-10 renal, 10.2 µM; in the experiment on UACC-257 melanoma, 22.7 µM.

For the compound `C#CCN(Cc1nc2cc(C(F)(F)F)ccc2nc1-c1ccccc1)c1ccc(C)cc1`, the GI50 in the experiment on OVCAR-8 ovarian was 10.9 µM; in the experiment on SF-539 CNS, 24.3 µM; in the experiment on NCI-H460 lung it was 3.93 µM; with K-562 leukemia, 33 µM; with NCI/ADR-RES ovarian it was 4.58 µM; in the experiment with U251 CNS it was 11.6 µM. For the same compound, the GI50 with OVCAR-4 ovarian was > 24.9 µM; in the experiment on 786-0 renal, 15.5 µM; in the experiment with TK-10 renal it was 15.4 µM; with UACC-257 melanoma, 19.5 µM. The TGI with OVCAR-8 ovarian is > 73.9 µM; in the experiment with SF-539 CNS, > 100 µM; with NCI-H460 lung, > 100 µM; with K-562 leukemia, > 100 µM; in the experiment with U251 CNS, > 38.1 µM; in the experiment with OVCAR-4 ovarian it was > 43.2 µM. For the same compound, the figures for the TGI with 786-0 renal, in the experiment with TK-10 renal and in the experiment with UACC-257 melanoma were > 42.8 µM, > 39.6 µM and 59 µM, respectively.

Take `CC1=CCCC2C1(C)CCC(C)C2(C)Cc1cc(O)ccc1O` (stereo not drawn): the TGI in the experiment on OVCAR-8 ovarian is 16.7 µM and 17.7 µM; in the experiment on SF-539 CNS, 26.3 µM and 23.6 µM; in the experiment with NCI-H460 lung, 28.9 µM and 20.5 µM; in the experiment with K-562 leukemia, 40.8 µM and 19.9 µM; with NCI/ADR-RES ovarian it was 18.2 µM and 18.9 µM; in the experiment with U251 CNS, 15.4 µM and 16.5 µM. In addition, the TGI is 24.8 µM and 10.8 µM in the experiment with OVCAR-4 ovarian; 20.3 µM in the experiment on 786-0 renal; 25.5 µM in the experiment with TK-10 renal; 29.1 µM and 26.4 µM in the experiment with UACC-257 melanoma. For the same compound, the GI50 in the experiment on SF-539 CNS is 11.1 µM; in the experiment with NCI-H460 lung it was 7.19 µM; with K-562 leukemia it was 5.44 µM; with OVCAR-4 ovarian, 3.58 µM; in the experiment on UACC-257 melanoma, 9.99 µM.

Turning to `CCCc1cc(=O)n2c(C(=O)Nc3cccc(C(=O)OCC)c3)c(C(=O)Nc3ccc(F)cc3)sc2n1`, the GI50 with OVCAR-8 ovarian is 3.63 µM; in the experiment on SF-539 CNS it was 23.8 µM; in the experiment on NCI-H460 lung it was 13.3 µM; in the experiment on K-562 leukemia, 60.3 µM; in the experiment on NCI/ADR-RES ovarian, 22.3 µM; with U251 CNS it was 3.55 µM. Further, the GI50 in the experiment on OVCAR-4 ovarian was 3.27 µM; in the experiment with 786-0 renal, 1.43 µM; in the experiment on TK-10 renal it was 5.72 µM; in the experiment on UACC-257 melanoma it was 54.1 µM. Further, the TGI in the experiment with OVCAR-8 ovarian was 15 µM; in the experiment on SF-539 CNS it was > 140 µM; in the experiment on NCI-H460 lung it was > 140 µM; with K-562 leukemia it was > 140 µM; in the experiment with NCI/ADR-RES ovarian, > 140 µM; in the experiment with U251 CNS, 48.6 µM. In addition, the TGI is 20.9 µM in the experiment on OVCAR-4 ovarian, 5.25 µM in the experiment with 786-0 renal, 22.1 µM in the experiment with TK-10 renal and > 140 µM in the experiment on UACC-257 melanoma.

With `N=C(N)SCc1c2ccccc2c(CSC(=N)N)c2ccccc12`, the GI50 with OVCAR-8 ovarian is 6.49 µM; with SF-539 CNS, 5.11 µM; in the experiment on NCI-H460 lung, 1.08 µM; in the experiment with K-562 leukemia it was 3.51 µM; in the experiment with NCI/ADR-RES ovarian, 23.8 µM; in the experiment on U251 CNS, 3.13 µM. The GI50 is 11.7 µM in the experiment with OVCAR-4 ovarian, 9.35 µM with 786-0 renal, 22.3 µM in the experiment with TK-10 renal and 23.2 µM with UACC-257 melanoma. Also, the TGI with OVCAR-8 ovarian is 50.4 µM; in the experiment on SF-539 CNS, 19.4 µM; in the experiment on NCI-H460 lung, 15.3 µM; in the experiment on K-562 leukemia it was 17.9 µM; with NCI/ADR-RES ovarian, > 100 µM; in the experiment on U251 CNS it was 26.7 µM. The TGI in the experiment on OVCAR-4 ovarian was 35.5 µM; with 786-0 renal, 24 µM; in the experiment on TK-10 renal it was 45.3 µM; in the experiment on UACC-257 melanoma it was 45 µM.

With `O=C1NC2C(=CC(O)C(O)C2O)c2cc3c(cc21)OCO3` (stereo not drawn), the GI50 in the experiment with OVCAR-8 ovarian was 0.344 µM and 0.171 µM; in the experiment with SF-539 CNS, 0.237 µM; with NCI-H460 lung it was 0.251 µM and 0.147 µM; in the experiment on K-562 leukemia, 0.294 µM and 0.149 µM; in the experiment on NCI/ADR-RES ovarian, 0.152 µM; in the experiment with U251 CNS it was 0.325 µM and 0.0688 µM. Also, the GI50 was 0.159 µM and 0.422 µM in the experiment on OVCAR-4 ovarian; 0.544 µM in the experiment with 786-0 renal; 0.917 µM with TK-10 renal; 0.47 µM and 0.304 µM in the experiment with UACC-257 melanoma. In addition, the TGI in the experiment with OVCAR-8 ovarian was 2.25 µM and 1.72 µM; in the experiment on SF-539 CNS, 1.41 µM and 1.85 µM; in the experiment on NCI-H460 lung, 2.01 µM and 1.3 µM; in the experiment with K-562 leukemia it was 3.64 µM and 7.68 µM; with NCI/ADR-RES ovarian it was 0.561 µM and 3.38 µM; in the experiment with U251 CNS, 0.437 µM and 3.07 µM. The TGI in the experiment with 786-0 renal was 4.93 µM; with TK-10 renal, 4.11 µM; in the experiment with UACC-257 melanoma, 2.83 µM and 2.86 µM.

As for `CCOC(=O)Nc1nc2ccc(Br)cc2s1`, the GI50 in the experiment with OVCAR-8 ovarian, with SF-539 CNS, with NCI-H460 lung, with K-562 leukemia, in the experiment with NCI/ADR-RES ovarian and with U251 CNS was > 50 µM throughout. For the same compound, the GI50 in the experiment on OVCAR-4 ovarian, in the experiment on 786-0 renal, in the experiment on TK-10 renal and with UACC-257 melanoma was > 50 µM in each case. Besides, the TGI with OVCAR-8 ovarian, in the experiment on SF-539 CNS, with NCI-H460 lung, in the experiment on K-562 leukemia, with NCI/ADR-RES ovarian and in the experiment on U251 CNS was > 50 µM throughout. In addition, the TGI in the experiment with OVCAR-4 ovarian, in the experiment on 786-0 renal, with TK-10 renal and in the experiment on UACC-257 melanoma was > 50 µM throughout.
